Source: patent publication US12539292B2, “BRM targeting compounds and associated methods of use” (Arvinas Operations, Inc., priority 2018, dated 2026)

Target: T1, BRM (Homo sapiens, UniProt P51531)
T1 construct: In-Cell Western Screen of BRM Degradation in SW1573 Cells; endogenous in cells; host or cells: SW1573
Test: In-cell Western screen of BRM degradation in SW1573 cells (Dmax and DC50)
Format: cell-based
Details: for DC50: target protein degradation, read-out: BRM DC50; for Dmax: SW1573, % degraded, when tested at the top concentration of between 0.3 and 10 μM, read-out: BRM Dmax (%)
Outline: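 After adhering overnight, cells received compound for 18-20 hours. They were then washed in cold DPBS, fixed with 4% PFA for 20 min and permeabilized for 30 min. Blocking and fluorescent secondary staining followed before imaging.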

T1 sequence (P51531 whole entry): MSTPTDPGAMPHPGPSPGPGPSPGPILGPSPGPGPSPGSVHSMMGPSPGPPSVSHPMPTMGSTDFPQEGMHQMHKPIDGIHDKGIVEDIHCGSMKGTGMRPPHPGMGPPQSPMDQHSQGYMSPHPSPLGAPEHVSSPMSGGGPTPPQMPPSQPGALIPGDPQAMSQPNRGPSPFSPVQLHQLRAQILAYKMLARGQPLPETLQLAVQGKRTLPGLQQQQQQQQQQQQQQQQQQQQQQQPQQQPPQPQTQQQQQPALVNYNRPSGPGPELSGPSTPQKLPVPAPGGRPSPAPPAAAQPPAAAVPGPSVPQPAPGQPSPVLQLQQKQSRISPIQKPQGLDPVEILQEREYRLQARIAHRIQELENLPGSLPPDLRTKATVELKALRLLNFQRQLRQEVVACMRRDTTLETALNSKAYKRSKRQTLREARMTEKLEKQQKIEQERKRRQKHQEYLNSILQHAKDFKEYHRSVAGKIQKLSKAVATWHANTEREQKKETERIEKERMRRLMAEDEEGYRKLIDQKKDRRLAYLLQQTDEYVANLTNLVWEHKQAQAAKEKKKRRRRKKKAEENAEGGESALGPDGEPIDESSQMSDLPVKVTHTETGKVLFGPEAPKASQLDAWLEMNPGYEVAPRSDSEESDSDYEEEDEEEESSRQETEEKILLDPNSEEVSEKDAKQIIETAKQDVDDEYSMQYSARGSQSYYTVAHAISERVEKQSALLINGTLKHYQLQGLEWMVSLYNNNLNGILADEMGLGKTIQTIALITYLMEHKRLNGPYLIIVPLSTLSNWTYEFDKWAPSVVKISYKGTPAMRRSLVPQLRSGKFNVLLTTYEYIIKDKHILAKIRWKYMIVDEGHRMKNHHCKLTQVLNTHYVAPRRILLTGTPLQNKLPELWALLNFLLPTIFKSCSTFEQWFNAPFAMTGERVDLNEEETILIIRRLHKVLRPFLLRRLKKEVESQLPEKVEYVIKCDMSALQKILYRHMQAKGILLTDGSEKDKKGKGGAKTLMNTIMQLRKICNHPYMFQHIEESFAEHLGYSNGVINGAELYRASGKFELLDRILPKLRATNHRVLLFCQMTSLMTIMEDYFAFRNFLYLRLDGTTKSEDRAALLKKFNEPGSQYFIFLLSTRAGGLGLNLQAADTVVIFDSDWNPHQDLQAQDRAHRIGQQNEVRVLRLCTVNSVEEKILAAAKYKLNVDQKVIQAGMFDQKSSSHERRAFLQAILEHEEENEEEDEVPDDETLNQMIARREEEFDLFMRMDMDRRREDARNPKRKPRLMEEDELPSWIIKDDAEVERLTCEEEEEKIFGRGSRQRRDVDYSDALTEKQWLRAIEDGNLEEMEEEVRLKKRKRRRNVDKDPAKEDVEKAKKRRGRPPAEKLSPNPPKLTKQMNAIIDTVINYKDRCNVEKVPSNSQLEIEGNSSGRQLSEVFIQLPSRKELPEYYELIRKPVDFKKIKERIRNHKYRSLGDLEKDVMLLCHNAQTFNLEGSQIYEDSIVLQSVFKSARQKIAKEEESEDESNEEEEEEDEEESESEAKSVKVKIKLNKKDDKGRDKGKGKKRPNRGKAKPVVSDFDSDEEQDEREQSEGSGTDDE

Q: How did the DC50 turn out when `Cc1ncsc1-c1ccc([C@H](C)NC(=O)[C@@H]2C[C@@H](O)CN2C(=O)[C@H](c2cc(N3CCC(OC4CCN(C[C@H]5C[C@H](Oc6cc(N7C8CCC7CN(c7cc(-c9ccccc9O)nnc7N)C8)ccn6)C5)CC4)CC3)no2)C(C)C)cn1` [compound 475, (2S,4R)-1-((2S)-2-(3-(4-((1-(((1r,3r)-3-((4-(3-(3-amino-6-(2-hydroxyphenyl)pyridazin-4-yl)-3,8-diazabicyclo[3.2.1]octan-8-yl)pyridin-2-yl)oxy)cyclobutyl)methyl)piperidin-4-yl)oxy)piperidin-1-yl)isoxazol-5-yl)-3-methylbutanoyl)-4-hydroxy-N-((S)-1-(6-(4-methylthiazol-5-yl)pyridin-3-yl)ethyl)pyrrolidine-2-carboxamide] was run?
A: > 30 nM

Q: Which Dmax does the source give for `Cc1ncsc1-c1ccc([C@H](C)NC(=O)[C@@H]2C[C@@H](O)CN2C(=O)[C@@H](c2cc(N3CCC(OC4CCN(C[C@H]5C[C@H](Oc6cc(N7C8CCC7CN(c7cc(-c9ccccc9O)nnc7N)C8)ccn6)C5)CC4)CC3)no2)C(C)C)cn1` [compound 476, (2S,4R)-1-((2R)-2-(3-(4-((1-(((1r,3r)-3-((4-(3-(3-amino-6-(2-hydroxyphenyl)pyridazin-4-yl)-3,8-diazabicyclo[3.2.1]octan-8-yl)pyridin-2-yl)oxy)cyclobutyl)methyl)piperidin-4-yl)oxy)piperidin-1-yl)isoxazol-5-yl)-3-methylbutanoyl)-4-hydroxy-N-((S)-1-(6-(4-methylthiazol-5-yl)pyridin-3-yl)ethyl)pyrrolidine-2-carboxamide] here?
A: > 75%

Q: What about the DC50 of the same molecule?
A: < 2.5 nM

Q: With `Cc1nccn1-c1ccc([C@H](C)NC(=O)[C@@H]2C[C@@H](O)CN2C(=O)[C@H](c2cc(N3CCC(OC4CCN(C[C@H]5C[C@H](Oc6cc(N7C8CCC7CN(c7cc(-c9ccccc9O)nnc7N)C8)ccn6)C5)CC4)CC3)no2)C(C)C)cc1` [compound 477, (2S,4R)-1-((2S)-2-(3-(4-((1-(((1r,3r)-3-((4-(3-(3-amino-6-(2-hydroxyphenyl)pyridazin-4-yl)-3,8-diazabicyclo[3.2.1]octan-8-yl)pyridin-2-yl)oxy)cyclobutyl)methyl)piperidin-4-yl)oxy)piperidin-1-yl)isoxazol-5-yl)-3-methylbutanoyl)-4-hydroxy-N-((S)-1-(4-(2-methyl-1H-imidazol-1-yl)phenyl)ethyl)pyrrolidine-2-carboxamide] as the molecule, how does the DC50 read?
A: > 30 nM

Q: What does the source list for `Cc1nccn1-c1ccc([C@H](C)NC(=O)[C@@H]2C[C@@H](O)CN2C(=O)[C@@H](c2cc(N3CCC(OC4CCN(C[C@H]5C[C@H](Oc6cc(N7C8CCC7CN(c7cc(-c9ccccc9O)nnc7N)C8)ccn6)C5)CC4)CC3)no2)C(C)C)cc1` [compound 478, (2S,4R)-1-((2R)-2-(3-(4-((1-(((1r,3r)-3-((4-(3-(3-amino-6-(2-hydroxyphenyl)pyridazin-4-yl)-3,8-diazabicyclo[3.2.1]octan-8-yl)pyridin-2-yl)oxy)cyclobutyl)methyl)piperidin-4-yl)oxy)piperidin-1-yl)isoxazol-5-yl)-3-methylbutanoyl)-4-hydroxy-N-((S)-1-(4-(2-methyl-1H-imidazol-1-yl)phenyl)ethyl)pyrrolidine-2-carboxamide]?
A: Dmax: > 75%; DC50: < 2.5 nM

Q: With `Cc1ncsc1-c1ccc([C@H](C)NC(=O)[C@@H]2C[C@@H](O)CN2C(=O)[C@H](c2cc(OC[C@@H]3C[C@H]3c3ccc(O[C@H]4C[C@H](Oc5cc(N6C7CCC6CN(c6cc(-c8ccccc8O)nnc6N)C7)ccn5)C4)cn3)no2)C(C)C)cn1` [compound 479, (2S,4R)-1-((2S)-2-(3-(((1R,2R)-2-(5-((1r,3R)-3-((4-(3-(3-amino-6-(2-hydroxyphenyl)pyridazin-4-yl)-3,8-diazabicyclo[3.2.1]octan-8-yl)pyridin-2-yl)oxy)cyclobutoxy)pyridin-2-yl)cyclopropyl)methoxy)isoxazol-5-yl)-3-methylbutanoyl)-4-hydroxy-N-((S)-1-(6-(4-methylthiazol-5-yl)pyridin-3-yl)ethyl)pyrrolidine-2-carboxamide] as the molecule, how does the DC50 read?
A: > 30 nM

Q: Which results are given for `Cc1ncsc1-c1ccc([C@H](C)NC(=O)[C@@H]2C[C@@H](O)CN2C(=O)[C@@H](c2cc(OC[C@@H]3C[C@H]3c3ccc(O[C@H]4C[C@H](Oc5cc(N6C7CCC6CN(c6cc(-c8ccccc8O)nnc6N)C7)ccn5)C4)cn3)no2)C(C)C)cn1` [compound 480, (2S,4R)-1-((2R)-2-(3-(((1R,2R)-2-(5-((1r,3R)-3-((4-(3-(3-amino-6-(2-hydroxyphenyl)pyridazin-4-yl)-3,8-diazabicyclo[3.2.1]octan-8-yl)pyridin-2-yl)oxy)cyclobutoxy)pyridin-2-yl)cyclopropyl)methoxy)isoxazol-5-yl)-3-methylbutanoyl)-4-hydroxy-N-((S)-1-(6-(4-methylthiazol-5-yl)pyridin-3-yl)ethyl)pyrrolidine-2-carboxamide]?
A: Dmax: > 75%; DC50: < 2.5 nM

Q: What does the source list for `Cc1cc([C@@H](C(=O)N2C[C@H](O)C[C@H]2C(=O)N[C@@H](C)c2ccc(-c3scnc3C)cc2)[C@@H](C)CO[C@H]2C[C@@H](Oc3cc(N4C5CCC4CN(c4cc(-c6ccccc6O)nnc4N)C5)ccn3)C2)on1` [compound 481, (2S,4R)-1-((2S,3R)-4-((1s,3S)-3-((4-(3-(3-amino-6-(2-hydroxyphenyl)pyridazin-4-yl)-3,8-diazabicyclo[3.2.1]octan-8-yl)pyridin-2-yl)oxy)cyclobutoxy)-3-methyl-2-(3-methylisoxazol-5-yl)butanoyl)-4-hydroxy-N-((S)-1-(4-(4-methylthiazol-5-yl)phenyl)ethyl)pyrrolidine-2-carboxamide]?
A: Dmax: > 75%; DC50: < 2.5 nM

Q: How did the DC50 turn out when `Cc1cc([C@H](C(=O)N2C[C@H](O)C[C@H]2C(=O)N[C@@H](C)c2ccc(-c3scnc3C)cc2)[C@@H](C)CO[C@H]2C[C@@H](Oc3cc(N4C5CCC4CN(c4cc(-c6ccccc6O)nnc4N)C5)ccn3)C2)on1` [compound 482, (2S,4R)-1-((2R,3R)-4-((1s,3S)-3-((4-(3-(3-amino-6-(2-hydroxyphenyl)pyridazin-4-yl)-3,8-diazabicyclo[3.2.1]octan-8-yl)pyridin-2-yl)oxy)cyclobutoxy)-3-methyl-2-(3-methylisoxazol-5-yl)butanoyl)-4-hydroxy-N-((S)-1-(4-(4-methylthiazol-5-yl)phenyl)ethyl)pyrrolidine-2-carboxamide] was run?
A: > 30 nM

Q: Which DC50 does the source give for `Cc1ncsc1-c1ccc([C@H](C)NC(=O)[C@@H]2C[C@@H](O)CN2C(=O)[C@H](c2cc(OCC(F)(F)CN3CCC(O[C@H]4C[C@H](Oc5cc(N6C7CCC6CN(c6cc(-c8ccccc8O)nnc6N)C7)ccn5)C4)CC3)no2)C(C)C)cc1` [compound 483, (2S,4R)-1-((2S)-2-(3-(3-(4-((1r,3S)-3-((4-(3-(3-amino-6-(2-hydroxyphenyl)pyridazin-4-yl)-3,8-diazabicyclo[3.2.1]octan-8-yl)pyridin-2-yl)oxy)cyclobutoxy)piperidin-1-yl)-2,2-difluoropropoxy)isoxazol-5-yl)-3-methylbutanoyl)-4-hydroxy-N-((S)-1-(4-(4-methylthiazol-5-yl)phenyl)ethyl)pyrrolidine-2-carboxamide] here?
A: > 30 nM

Q: For `Cc1ncsc1-c1ccc([C@H](C)NC(=O)[C@@H]2C[C@@H](O)CN2C(=O)[C@@H](c2cc(OCC(F)(F)CN3CCC(O[C@H]4C[C@H](Oc5cc(N6C7CCC6CN(c6cc(-c8ccccc8O)nnc6N)C7)ccn5)C4)CC3)no2)C(C)C)cc1` [compound 484, (2S,4R)-1-((2R)-2-(3-(3-(4-((1r,3R)-3-((4-(3-(3-amino-6-(2-hydroxyphenyl)pyridazin-4-yl)-3,8-diazabicyclo[3.2.1]octan-8-yl)pyridin-2-yl)oxy)cyclobutoxy)piperidin-1-yl)-2,2-difluoropropoxy)isoxazol-5-yl)-3-methylbutanoyl)-4-hydroxy-N-((S)-1-(4-(4-methylthiazol-5-yl)phenyl)ethyl)pyrrolidine-2-carboxamide], which Dmax is on record?
A: > 75%

Q: What about the DC50 of the same molecule?
A: < 2.5 nM

Q: How did the DC50 turn out when `Cc1ncsc1-c1ccc([C@H](C)NC(=O)[C@@H]2C[C@@H](O)CN2C(=O)[C@H](c2cc(OCC[C@H]3CC[C@H](O[C@H]4C[C@H](Oc5cc(N6C7CCC6CN(c6cc(-c8ccccc8O)nnc6N)C7)ccn5)C4)CC3)no2)C(C)C)cn1` [compound 485, (2S,4R)-1-((2S)-2-(3-(2-((1R,4S)-4-((1r,3S)-3-((4-(3-(3-amino-6-(2-hydroxyphenyl)pyridazin-4-yl)-3,8-diazabicyclo[3.2.1]octan-8-yl)pyridin-2-yl)oxy)cyclobutoxy)cyclohexyl)ethoxy)isoxazol-5-yl)-3-methylbutanoyl)-4-hydroxy-N-((S)-1-(6-(4-methylthiazol-5-yl)pyridin-3-yl)ethyl)pyrrolidine-2-carboxamide] was run?
A: > 30 nM

Q: With `Cc1ncsc1-c1ccc([C@H](C)NC(=O)[C@@H]2C[C@@H](O)CN2C(=O)[C@@H](c2cc(OCC[C@H]3CC[C@H](O[C@H]4C[C@H](Oc5cc(N6C7CCC6CN(c6cc(-c8ccccc8O)nnc6N)C7)ccn5)C4)CC3)no2)C(C)C)cn1` [compound 486, (2S,4R)-1-((2R)-2-(3-(2-((1R,4R)-4-((1r,3R)-3-((4-(3-(3-amino-6-(2-hydroxyphenyl)pyridazin-4-yl)-3,8-diazabicyclo[3.2.1]octan-8-yl)pyridin-2-yl)oxy)cyclobutoxy)cyclohexyl)ethoxy)isoxazol-5-yl)-3-methylbutanoyl)-4-hydroxy-N-((S)-1-(6-(4-methylthiazol-5-yl)pyridin-3-yl)ethyl)pyrrolidine-2-carboxamide] as the molecule, how does the Dmax read?
A: > 75%

Q: What about the DC50 of the same molecule?
A: < 2.5 nM

Q: For `Cc1ncsc1-c1ccc([C@H](C)NC(=O)[C@@H]2C[C@@H](O)CN2C(=O)[C@H](c2cc(OCC[C@H]3CC[C@H](O[C@H]4C[C@H](Oc5cc(N6C7CCC6CN(c6cc(-c8ccccc8O)nnc6N)C7)ccn5)C4)CC3)no2)C(C)C)cc1` [compound 487, (2S,4R)-1-((2S)-2-(3-(2-((1R,4S)-4-((1r,3S)-3-((4-(3-(3-amino-6-(2-hydroxyphenyl)pyridazin-4-yl)-3,8-diazabicyclo[3.2.1]octan-8-yl)pyridin-2-yl)oxy)cyclobutoxy)cyclohexyl)ethoxy)isoxazol-5-yl)-3-methylbutanoyl)-4-hydroxy-N-((S)-1-(4-(4-methylthiazol-5-yl)phenyl)ethyl)pyrrolidine-2-carboxamide], which DC50 is on record?
A: > 30 nM
